# Source: PubChem BioAssay (NCI)
#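 48-hour exposure; five concentrations; linearly interpolated endpoints. At the GI50, growth is halved. TGI is the concentration that stops growth completely.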
# Columns and labels:
# Assay in all cases: NCI tumour cell line growth inhibition, 48 h
# U251 CNS = tested on: U251 CNS
# UO-31 renal = tested on: UO-31 renal
# SK-MEL-28 melanoma = tested on: SK-MEL-28 melanoma
# ACHN renal = tested on: ACHN renal
# COLO 205 colon = tested on: COLO 205 colon
# SK-MEL-2 melanoma = tested on: SK-MEL-2 melanoma
# SF-268 CNS = tested on: SF-268 CNS
# SNB-75 CNS = tested on: SNB-75 CNS
# OVCAR-8 ovarian = tested on: OVCAR-8 ovarian
# MALME-3M melanoma = tested on: MALME-3M melanoma
Structure (SMILES),GI50 (U251 CNS),TGI (U251 CNS),GI50 (UO-31 renal),TGI (UO-31 renal),GI50 (SK-MEL-28 melanoma),TGI (SK-MEL-28 melanoma),GI50 (ACHN renal),TGI (ACHN renal),GI50 (COLO 205 colon),TGI (COLO 205 colon),GI50 (SK-MEL-2 melanoma),TGI (SK-MEL-2 melanoma),GI50 (SF-268 CNS),TGI (SF-268 CNS),GI50 (SNB-75 CNS),TGI (SNB-75 CNS),GI50 (OVCAR-8 ovarian),TGI (OVCAR-8 ovarian),GI50 (MALME-3M melanoma),TGI (MALME-3M melanoma)
NC(=O)c1cccc(Nc2nccc(Nc3cccc4[nH]ncc34)n2)c1,9.53 µM,> 25 µM,12.4 µM,> 25 µM,10.1 µM,> 25 µM,10.9 µM,> 25 µM,5.5 µM,17.1 µM,7.91 µM,17.8 µM,8.45 µM,> 25 µM,4.58 µM,15.6 µM,8.11 µM,> 25 µM,24.4 µM,> 25 µM
CN1C(=O)N[C@H]2[C@@H]3NC(=O)c4ccc(Br)n4[C@@H]3C[C@]21O,0.0714 µM,1.55 µM,1.81 µM,6.75 µM,0.0317 µM,0.262 µM,0.187 µM,2.93 µM,0.0832 µM,1.18 µM,0.0568 µM,0.194 µM,0.115 µM,2.63 µM,0.106 µM,0.969 µM,0.259 µM,1.93 µM,0.103 µM,0.731 µM
CC(=O)On1c(-c2ccccc2-c2nc3ccccc3n2OC(C)=O)nc2ccccc21,–,> 100 µM,–,> 100 µM,–,> 100 µM,–,> 100 µM,–,46 µM,–,88.6 µM,–,> 100 µM,–,> 100 µM,–,> 100 µM,–,> 100 µM
N#C/C(=C1\SC(N=Nc2ccccc2)C(=O)N1c1ccccc1)c1nc2ccccc2[nH]1 (stereo not given),–,> 100 µM,–,> 100 µM,–,> 100 µM,–,> 100 µM,–,> 100 µM,–,> 100 µM,–,> 100 µM,–,> 100 µM,–,> 100 µM,–,> 100 µM
O=C(Nc1cccc(O)c1)C(=O)C(C(=O)c1ccc(Cl)c(Cl)c1)C1OC(=O)c2ccccc21 (stereo not given),–,21.3 µM,–,27.1 µM,–,40.6 µM,–,29.7 µM,–,30.7 µM,–,63.9 µM,–,33.7 µM,–,71.4 µM,–,37.8 µM,–,33.8 µM
CCN(CC)CCCNC(=O)c1c2c(n3ccccc13)C(=O)c1ncccc1C2=O,1.37 µM,2.89 µM,1.59 µM,5.07 µM,2.49 µM,8.64 µM,0.395 µM,3.16 µM,0.123 µM,0.399 µM,1.7 µM,3.89 µM,1.11 µM,7.09 µM,1.5 µM,2.93 µM,0.486 µM,2.07 µM,0.0823 µM,0.425 µM
CC1(CCC(=O)OC2CCCCC2)OCCO1,–,> 100 µM,–,> 100 µM,–,> 100 µM,–,> 100 µM,–,> 100 µM,–,> 100 µM,–,> 100 µM,–,> 100 µM,–,> 100 µM,–,> 100 µM
O=C1OC(O)C(Oc2c(Cl)cccc2Cl)=C1Cl (stereo not given),–,26.8 µM,–,28.2 µM,–,45.7 µM,–,42.3 µM,–,30.2 µM,–,34.2 µM,–,31.3 µM,–,54.6 µM,–,37.9 µM,–,75.4 µM
